Data: patent US20070117743A1, “New antitumoral compounds” (priority 2003, published 2007)
Where two headings read alike, the source gives them in different places. Where a SMILES comes first, the peptide text is derived from it. Bridges are numbered along the chain shown (N, C = ends). [ ]: non-standard residue; d: D form. The star is where a group is joined. d(aIle) = CC[C@H](C)[C@@H](N)C(=O)O; d(aThr) = C[C@@H](O)[C@@H](N)C(=O)O; hCha = N[C@@H](CCC1CCCCC1)C(=O)O; Hexanoyl(5-Me) = CC(C)CCCC(=O)*; Orn = NCCC[C@H](N)C(=O)O; Dhb = C/C=C(\N)C(=O)O

Columns and labels:
Format in all cases: cell-based, human
A-549 = assay: SRB colorimetric assay of cell growth and viability, A-549; conditions: 48 hours exposure; for GI50: read-out: GI50 A-549; for CC50: read-out: LC50 A-549
SK-MEL-28 = assay: SRB colorimetric assay of cell growth and viability, SK-MEL-28; conditions: 48 hours exposure; for CC50: read-out: LC50 MEL-28
HT-29 = assay: SRB colorimetric assay of cell growth and viability, HT-29; conditions: 48 hours exposure; for GI50: read-out: GI50 HT-29; for CC50: read-out: LC50 HT-29
LoVo = assay: SRB colorimetric assay of cell growth and viability, LoVo; conditions: 48 hours exposure; for CC50: read-out: LC50 LOVO
LoVo-Dox = assay: SRB colorimetric assay of cell growth and viability, LoVo-Dox; conditions: 48 hours exposure; for CC50: read-out: LC50 LOVO-DOX
Method in brief: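 Absorbance at 490 nm of Tris-solubilized sulforhodamine B gives the read-out after cells are fixed with cold 50% TCA for 60 min at 4° C. Compound exposure lasts 48 hours over 10 to 10^−8 μg/mL. Growth inhibition, total growth inhibition and lethal concentration are calculated from triplicate wells.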

DU-145 = assay: SRB colorimetric assay of cell growth and viability, DU-145; conditions: 48 hours exposure
LNCaP = assay: SRB colorimetric assay of cell growth and viability, LNCaP; conditions: 48 hours exposure; for GI50: read-out: GI50 LN-caP; for CC50: read-out: LC50 LN-caP
SK-BR-3 = assay: SRB colorimetric assay of cell growth and viability, SK-BR-3; conditions: 48 hours exposure
IGROV-1 = assay: SRB colorimetric assay of cell growth and viability, IGROV-1; conditions: 48 hours exposure
IGROV-ET = assay: SRB colorimetric assay of cell growth and viability, IGROV-ET; conditions: 48 hours exposure; for CC50: read-out: LC50 IGROV-ET
HeLa = assay: SRB colorimetric assay of cell growth and viability, HeLa; conditions: 48 hours exposure; for CC50: read-out: LC50 HELA
HeLa-APL = assay: SRB colorimetric assay of cell growth and viability, HeLa-APL; conditions: 48 hours exposure; for CC50: read-out: LC50 HELA-APL
K-562 = assay: SRB colorimetric assay of cell growth and viability, K-562; conditions: 48 hours exposure; for CC50: read-out: LC50 K-562
PANC-1 = assay: SRB colorimetric assay of cell growth and viability, PANC-1; conditions: 48 hours exposure; for CC50: read-out: LC50 PANC-1

## C/C=C1\NC(=O)[C@H](CCC2CCCCC2)NC(=O)[C@@H](C(C)C)NC(=O)[C@@H]([C@@H](C)CC)NC(=O)[C@H](NC(=O)[C@H](NC(=O)[C@H](CCCN)NC(=O)[C@H]2CCCN2C(=O)[C@H](NC(=O)[C@@H](NC(=O)[C@@H](NC(=O)[C@H](NC(=O)CCCC(C)C)C(C)C)[C@@H](C)O)C(C)C)C(C)C)[C@@H](C)CC)[C@@H](C)OC(=O)[C@H](C(C)C)NC1=O [Compound 63, 5-MeHex-D-Val-Thr-Val-D-Val-D-Pro-Orn-D-allo-Ile-cyclo[D-allo-Thr-D-alo-Ile-D-Val-hCh-(Z)-Dhb-Val]] ({Hexanoyl(5-Me)}-[dV]TV[dV][dP][Orn][d(aIle)][d(aThr)][d(aIle)][dV][hCha][Dhb]V; ester 8-C)
A-549; A-549
  TGI A-549: 1.60E−06 Molar
  GI50: 728 nM
  CC50: 3480 nM
SK-MEL-28; SRB
  GI50: 828 nM
  TGI MEL-28: 1.77E−06 Molar
  CC50: 3790 nM
HT-29; HT-29
  TGI HT-29: 3.22E−07 Molar
  GI50: 132 nM
  CC50: 1130 nM
LoVo; LOVO
  GI50: 122 nM
  TGI LOVO: 2.40E−07 Molar
  CC50: 469 nM
LoVo-Dox; LOVO-DOX
  GI50: 130 nM
  TGI LOVO-DOX: 2.56E−07 Molar
  CC50: 502 nM
DU-145; SRB
  GI50: 119 nM
  LC50 (concentration causing 50% net cell kill): 1550 nM
  TGI DU-145: 4.25E−07 Molar
LNCaP; SRB
  TGI LN-caP: 1.21E−06 Molar
  GI50: 336 nM
  CC50: 2850 nM
SK-BR-3; SRB
  GI50: 74.8 nM
  LC50: 465 nM
  TGI SK-BR-3: 1.86E−07 Molar
IGROV-1; SRB
  GI50: 128 nM
  LC50 (concentration causing 50% net cell killing): 2000 nM
  TGI IGROV: 4.29E−07 Molar
IGROV-ET; SRB
  GI50: 76.1 nM
  TGI IGROV-ET: 2.01E−07 Molar
  CC50: 529 nM
HeLa; HELA
  GI50: 175 nM
  TGI HELA: 4.99E−07 Molar
  CC50: 2060 nM
HeLa-APL; HELA-APL
  GI50: 292 nM
  TGI HELA-APL: 1.09E−06 Molar
  CC50: 3230 nM
K-562; K-562
  GI50: 1480 nM
  TGI K-562: 2.63E−06 Molar
  CC50: 4690 nM
PANC-1; PANC-1
  GI50: 1050 nM
  TGI PANC-1: 2.10E−06 Molar
  CC50: 4210 nM

## C/C=C1\NC(=O)[C@H](Cc2ccccc2)NC(=O)[C@@H](C(C)C)NC(=O)[C@@H](C(C)CC)NC(=O)[C@H](NC(=O)[C@H](NC(=O)[C@H](CCCN)NC(=O)[C@H]2CCCN2C(=O)[C@H](NC(=O)[C@@H](NC(=O)[C@@H](NC(=O)[C@H](NC(=O)CCC(C)CC)C(C)C)C(C)O)C(C)C)C(C)C)C(C)CC)C(C)OC(=O)[C@H](C(C)C)NC1=O (stereo partly drawn) [Compound 1, (4S)-MeHex-D-Val-ThrVal-D-Val-D-Pro-Orn-D-allo-Ile-cyclo[D-allo-Thr-D-allo-Ile-D-Val-Phe-(Z)Dhb-Val]]
A-549
  TGI A-549: 2.05E−06 Molar
  GI50: 907 nM
  CC50: 4630 nM
SK-MEL-28
  GI50: 315 nM
  TGI MEL-28: 4.10E−07 Molar
  CC50: 2100 nM
HT-29
  TGI HT-29: 2.18E−07 Molar
  GI50: 95.4 nM
  CC50: 498 nM
LoVo
  GI50: 116 nM
  TGI LOVO: 2.42E−07 Molar
  CC50: 502 nM
LoVo-Dox
  GI50: 63.6 nM
  TGI LOVO-DOX: 2.29E−07 Molar
  CC50: 1430 nM
DU-145
  GI50: 327 nM
  LC50 (concentration causing 50% net cell kill): 2540 nM
  TGI DU-145: 8.80E−07 Molar
LNCaP
  TGI LN-caP: 2.14E−06 Molar
  GI50: 900 nM
  CC50: 5080 nM
SK-BR-3
  GI50: 43.4 nM
  LC50: 469 nM
  TGI SK-BR-3: 9.27E−08 Molar
IGROV-1
  GI50: 158 nM
  LC50 (concentration causing 50% net cell killing): 641 nM
  TGI IGROV: 3.19E−07 Molar
IGROV-ET
  GI50: 135 nM
  TGI IGROV-ET: 2.89E−07 Molar
  CC50: 619 nM
HeLa
  GI50: 254 nM
  TGI HELA: 7.38E−07 Molar
  CC50: 2560 nM
HeLa-APL
  GI50: 556 nM
  TGI HELA-APL: 1.52E−06 Molar
  CC50: 3810 nM
K-562
  GI50: 1620 nM
  TGI K-562: 2.96E−06 Molar
  CC50: 5400 nM
PANC-1
  GI50: 1820 nM
  TGI PANC-1: 3.66E−06 Molar
  CC50: ≥ 6770 nM

## C/C=C1\NC(=O)[C@H](Cc2ccccc2)NC(=O)[C@@H](C(C)C)NC(=O)[C@@H]([C@@H](C)CC)NC(=O)[C@H](NC(=O)[C@H](NC(=O)[C@H](CCCN)NC(=O)[C@H]2CCCN2C(=O)[C@H](NC(=O)[C@@H](NC(=O)[C@@H](NC(=O)[C@H](NC(=O)CCCCC(C)=O)C(C)C)[C@@H](C)O)C(C)C)C(C)C)[C@@H](C)CC)[C@@H](C)OC(=O)[C@H](C(C)C)NC1=O [Compound 27, [6-OHep^14]-KF]
A-549
  TGI A-549: 6.70E−06 Molar
  GI50: 6700 nM
  CC50: 6700 nM
SK-MEL-28
  GI50: 6700 nM
  TGI MEL-28: 6.70E−06 Molar
  CC50: 6700 nM
HT-29
  TGI HT-29: 6.70E−06 Molar
  GI50: 6700 nM
  CC50: 6700 nM
LoVo
  GI50: 3500 nM
  TGI LOVO: 6.70E−06 Molar
  CC50: 6700 nM
LoVo-Dox
  GI50: 2140 nM
  TGI LOVO-DOX: 6.70E−06 Molar
  CC50: 6700 nM
DU-145
  GI50: 6700 nM
  LC50 (concentration causing 50% net cell kill): 6700 nM
  TGI DU-145: 6.70E−06 Molar
LNCaP
  TGI LN-caP: 6.70E−06 Molar
  GI50: 6700 nM
  CC50: 6700 nM
SK-BR-3
  GI50: 3160 nM
  LC50: 6700 nM
  TGI SK-BR-3: 6.70E−06 Molar
IGROV-1
  GI50: 6700 nM
  LC50 (concentration causing 50% net cell killing): 6700 nM
  TGI IGROV: 6.70E−06 Molar
IGROV-ET
  GI50: 6700 nM
  TGI IGROV-ET: 6.70E−06 Molar
  CC50: 6700 nM
HeLa
  GI50: 6700 nM
  TGI HELA: 6.70E−06 Molar
  CC50: 6700 nM
HeLa-APL
  GI50: 6700 nM
  TGI HELA-APL: 6.70E−06 Molar
  CC50: 6700 nM
K-562
  GI50: 6700 nM
  TGI K-562: 6.70E−06 Molar
  CC50: 6700 nM
PANC-1
  GI50: 6700 nM
  TGI PANC-1: 6.70E−06 Molar
  CC50: 6700 nM
